Experiments:
[1] = system: HCT-116 (colon cancer); assay: Proliferation of HCT-116 cells (trypan blue count); assay type: cell-based, human; conditions: 30 μM, 72 hours
Method: A2780 and SKOV-3 cells were treated with 50 μM of 33 for 72 h before RNA and protein extraction and expression analyses. A2780 and A2780 CIS were treated with 33 (30 μM) and/or cisplatin (1 μM, Sigma-Aldrich) for 48 hours while MCF-7, A549 and HCT-116 were treated with 33 (30 μM) for 72 hours. Total cell number and viability have been assessed using Trypan Blue Solution (Thermo Fisher Scientific) and Countess™ 3 Automated Cell Counter (Thermo Fisher Scientific).

[2] = target: T1, hTopII (Homo sapiens, UniProt P11388); assay: Detection of hTOP2α cleavage complexes (cleavage assay); assay type: cell-based; conditions: 100 μM
T1 construct: endogenous in cells
T1 sequence (P11388 whole entry): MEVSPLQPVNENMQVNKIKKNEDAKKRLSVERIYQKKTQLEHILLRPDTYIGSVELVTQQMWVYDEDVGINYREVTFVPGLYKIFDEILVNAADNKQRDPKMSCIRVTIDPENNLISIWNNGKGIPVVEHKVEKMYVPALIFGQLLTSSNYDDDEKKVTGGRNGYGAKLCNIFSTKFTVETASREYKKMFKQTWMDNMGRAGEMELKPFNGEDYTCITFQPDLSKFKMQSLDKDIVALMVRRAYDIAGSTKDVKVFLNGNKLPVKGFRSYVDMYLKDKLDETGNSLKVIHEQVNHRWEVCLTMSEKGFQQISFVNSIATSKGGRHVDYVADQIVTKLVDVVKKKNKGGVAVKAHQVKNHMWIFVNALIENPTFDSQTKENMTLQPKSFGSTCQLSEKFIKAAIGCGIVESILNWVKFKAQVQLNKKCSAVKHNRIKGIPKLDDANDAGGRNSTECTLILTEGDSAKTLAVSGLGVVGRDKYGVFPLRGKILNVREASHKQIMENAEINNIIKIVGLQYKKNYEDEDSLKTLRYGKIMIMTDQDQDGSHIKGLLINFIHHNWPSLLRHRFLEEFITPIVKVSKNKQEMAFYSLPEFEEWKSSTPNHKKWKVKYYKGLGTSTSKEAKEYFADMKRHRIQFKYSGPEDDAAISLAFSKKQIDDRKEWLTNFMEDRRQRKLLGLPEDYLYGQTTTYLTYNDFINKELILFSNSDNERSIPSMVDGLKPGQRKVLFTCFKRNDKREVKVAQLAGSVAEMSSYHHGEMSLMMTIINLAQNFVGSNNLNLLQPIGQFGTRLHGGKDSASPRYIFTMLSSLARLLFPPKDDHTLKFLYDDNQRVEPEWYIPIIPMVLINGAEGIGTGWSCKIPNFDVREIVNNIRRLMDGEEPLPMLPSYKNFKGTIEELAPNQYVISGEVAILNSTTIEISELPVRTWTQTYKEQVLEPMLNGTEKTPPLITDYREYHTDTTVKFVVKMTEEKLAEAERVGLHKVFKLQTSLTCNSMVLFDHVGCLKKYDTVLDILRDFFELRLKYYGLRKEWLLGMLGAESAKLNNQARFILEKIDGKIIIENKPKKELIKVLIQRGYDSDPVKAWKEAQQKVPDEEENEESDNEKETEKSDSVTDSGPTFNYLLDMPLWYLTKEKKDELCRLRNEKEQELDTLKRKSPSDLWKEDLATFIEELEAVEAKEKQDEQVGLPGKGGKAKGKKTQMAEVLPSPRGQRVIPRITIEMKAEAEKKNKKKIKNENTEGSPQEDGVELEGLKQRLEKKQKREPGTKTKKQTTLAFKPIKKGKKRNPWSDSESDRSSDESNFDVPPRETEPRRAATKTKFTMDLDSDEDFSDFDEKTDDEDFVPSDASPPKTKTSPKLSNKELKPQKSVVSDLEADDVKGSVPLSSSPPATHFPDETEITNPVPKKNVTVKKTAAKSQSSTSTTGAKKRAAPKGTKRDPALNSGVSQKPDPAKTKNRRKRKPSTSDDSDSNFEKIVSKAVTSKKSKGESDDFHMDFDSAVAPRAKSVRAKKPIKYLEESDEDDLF
Method: After compound treatments, 1 × 10^6 human cells in 35 mm dish per sample were washed with 1× phosphate-buffered saline (PBS) and lysed with 600 μL of DNAzol (Invitrogen), followed by precipitation with 300 μL of 200 proof ethanol. The nucleic acids were collected, washed with 75% ethanol, resuspended in 200 μL of TE buffer, and then heated at 65 °C for 15 min, followed by shearing with sonication (40% output for 10 s pulse and 10 s rest for four times). The samples were centrifuged at 15 000 rpm for 5 min at 4 °C, and the supernatant were collected. 1 μL of each sample was removed for spectrophotometric measurement of absorbance at 260 nm to quantitate DNA content (NanoDrop). 2 μg of each sample was subjected to slot-blot for immunoblotting using anti-hTOP1 antibody (BD Pharmingen, 556597) and anti-hTOP2α antibody (Santa Cruz biotechnology, 365916).[51]

[3] = system: A2780 cells; assay: A2780 cell number, cell death and apoptosis markers (trypan blue, Western blot); assay type: cell-based, human
Excerpt: […] […] Total cell number and viability have been assessed using Trypan Blue Solution (Thermo Fisher Scientific) and Countess™ 3 Automated Cell Counter (Thermo Fisher Scientific).
(§1) Lysates were loaded on 4–12% bis–tris-acrylamide gel (Life Technologies) and transferred to a nitrocellulose membrane. The membrane was blocked in 5% milk and hybridized with α-TRBP (15753-1-AP Proteintech), α-GAPDH (sc-25778, Santa Cruz Biotechnology), α-c-PARP (Bioss Antibodies, BSM-52408R), α-BCLXL (mAb #2764, Cell Signaling Technology) and α-β-actin (A3854, Sigma) antibodies. All the images were captured using the ChemiDocTM Touch Imaging System (Bio-Rad), and the densitometric analyses were performed using the associated Image Lab software (Bio-Rad).

[4] = system: shRNA to siRNA maturation (GAPDH mRNA); assay: RNAi enhancing activity (shRNA to siRNA maturation, GAPDH mRNA in HEK-293T_shGAPDH); assay type: cell-based, human; conditions: 50 μM, 48 hours
Method: HEK-293T_shSCR and HEK-293T_shGAPDH were treated with 50 μM of enoxacin and 33 for 48 hours before RNA extraction and expression analysis.
Lentiviral particles were produced by calcium phosphate transient transfection of HEK-293T cells with specific lentiviral plasmids (shGAPDH: TRCN0000445616 and shSCR: TRCN0000015937 from SIGMA-ALDRICH) together with the packaging plasmids (pLP1and pLP2) and the envelope plasmid pLP/VSVG. For each lentiviral plasmid one 150 mm plate of HEK293T cells was used for transfection. After 14–16 hours the medium was replaced with complete medium supplemented with 1 mM sodium butyrate (SIGMA-ALDRICH). The collection of medium containing lentiviral particles occurs 48 h and 72 h after transfection; complete medium supplemented with sodium butyrate was added after the first collection. […]
Total RNA was extracted using the Direct-zol RNA MiniPrep kit (Zymo Research) with on-column DNase treatment, according to the manufacturer's instructions. Reverse transcription was carried out with SuperScript VILO cDNA Synthesis Kit (Life Technologies) and the cDNA samples were analyzed by qRT-PCR using PowerUp SYBR Green Master Mix (Thermo Fisher Scientific). For miR-21 expression analysis total RNA was retrotranscribed using miRCURY® LNA® RT Kit (Qiagen) and the cDNA was analyzed by using miRCURY® LNA® miRNA PCR Assay (Qiagen). […]

[5] = target: T2, TRBP (Homo sapiens, UniProt Q15633); assay: Cellular thermal shift assay of TRBP (HEK-293T lysates, Western blot); assay type: binding; parameters: endogenous in cells; host or cells: HEK-293T
T2 sequence (Q15633 1-366): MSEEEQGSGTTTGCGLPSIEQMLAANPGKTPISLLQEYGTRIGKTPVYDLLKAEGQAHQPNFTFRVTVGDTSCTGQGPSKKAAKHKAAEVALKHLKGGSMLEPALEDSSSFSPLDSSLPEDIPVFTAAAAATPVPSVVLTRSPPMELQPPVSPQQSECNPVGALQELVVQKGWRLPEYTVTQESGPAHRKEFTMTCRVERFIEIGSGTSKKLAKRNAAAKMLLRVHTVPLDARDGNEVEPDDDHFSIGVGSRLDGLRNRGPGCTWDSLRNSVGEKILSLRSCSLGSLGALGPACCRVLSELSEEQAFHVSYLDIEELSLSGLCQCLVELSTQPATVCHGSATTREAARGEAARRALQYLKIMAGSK
Method: HEK-293T cells were harvested in PBS supplemented with protease inhibitor cocktail (complete, EDTA-free, Roche). Cell suspensions were freeze-thawed three times in liquid nitrogen and then centrifuged (20 000g) for 10 min at 4 °C. The lysates were diluted at concentration of 2 μg μL^−1 and then treated with DMSO and 50 μM of 33 or with increasing concentration of 33 for 30 min at 37 °C. After this incubation the lysates were divided into equal parts (50 μL) and heated individually at designated temperatures for 3 min. The heated samples were cooled at room temperature for 3 min and centrifuged (20 000g) for 10 min at 4 °C. The supernatants were transferred to new tubes and analyzed by use for western blotting.
as §1

## O=C(O)c1cn(C2CC2)c2cc(N3CCc4ccccc4C3)c(F)cc2c1=O [Compound 33, 1-Cyclopropyl-7-(3,4-dihydroisoquinolin-2(1H)-yl)-6-fluoro-4-oxo-1,4-dihydroquinoline-3-carboxylic acid]
[1]
  effect on HCT-116 cell proliferation: significant inhibitory effect on cell proliferation
[2]
  trapping/inhibition of hTopII (cleavage assay): no inhibition or trapping activity
[3]; 30 μM, 72 hours, Western blot
  Bcl-XL protein in A2780 cells: downregulation
  cleaved PARP1 (c-PARP) levels in A2780 cells: increased levels of cleaved PARP1
[3]; 30 μM, 72 hours, trypan blue
  percentage of dead A2780 cells: increased to a great extent
  total number of A2780 cells: greatly reduced
[3]; 33 30 μM + cisplatin 1 μM, 48 hours
  effect of 33 in combination with cisplatin on A2780 proliferation: more pronounced inhibitory effect on A2780 proliferation
[4]
  RNAi enhancing effect (GAPDH mRNA decrease): modest but significant RNAi enhancing effect
[5]; 50 μM, different temperatures
  thermal shift of TRBP versus DMSO: significant thermal shift
[5]; increasing concentration, 55 °C
  concentration dependency of TRBP destabilization: destabilization of TRBP in a concentration-dependent manner

Source: article PMC11467779, “New anti-ovarian cancer quinolone derivatives acting by modulating microRNA processing machinery” (RSC Medicinal Chemistry, 2024)
